This is an account of results in ChEMBL document CHEMBL3045202, “Synthesis of some bisindolyl analogs for in vitro cytotoxic and DNA cleavage studies” (Med Chem Res, 2013).

The source made the active and inactive calls. No cut-off for these calls is given here.

By IC50 is commonly meant the concentration that inhibits the measured activity by half.

In one experiment the test system is HeLa. Description: Cytotoxicity against Homo sapiens (human) HeLa cells by MTT assay. It counts as functional, cell-based. For orientation: Formazan colour is commonly taken as a measure of viable cells.
For the next experiment, the system named is A549. The experiment can be described thus: Cytotoxicity against Homo sapiens (human) A549 cells by MTT assay. It is filed as functional, cell-based.
A further experiment has as its system HEp-2. Description: Cytotoxicity against Homo sapiens (human) Hep2 cells by MTT assay. It counts as functional, cell-based.
In another experiment the test system is Escherichia coli. The experiment can be described thus: Induction of DNA cleavage in Escherichia coli at 1 ug/ml after 2 hr by agarose gel electrophoretic analysis.

For `CC1=NNC(=O)C1C(c1c(-c2ccccc2)[nH]c2ccc(C)cc12)c1c(-c2ccccc2)[nH]c2ccc(Cl)cc12` (stereo not drawn), the IC50 with HeLa was > 100 µM; with A549, 35 µM; in the experiment on HEp-2, 32.4 µM.
As to `CC1=NNC(=O)C1C(c1c[nH]c2ccccc12)c1c(-c2ccccc2)[nH]c2ccccc12` (stereo not drawn), the half-maximal inhibitory concentration (IC50) in the experiment on HeLa was 7.7 µM; in the experiment with A549, 5.5 µM; with HEp-2, 6.7 µM.
As to `COc1ccc2[nH]c(-c3ccccc3)c(C(c3c(-c4ccccc4)[nH]c4ccc(C)cc34)C3C(=O)NN=C3C)c2c1` (stereo not drawn), the IC50 in the experiment with HeLa is > 100 µM; with A549, 1.8 µM; in the experiment with HEp-2 it was 3.5 µM. In the experiment on Escherichia coli, the outcome was Active.
`CC1=NNC(=O)C1C(c1c(-c2ccccc2)[nH]c2ccc(Cl)cc12)c1c(-c2ccccc2)[nH]c2ccc(Cl)cc12` (stereo not drawn): the values for the IC50 in the experiment with HeLa, with A549 and in the experiment with HEp-2 were 9.5 µM, 7 µM and 14.6 µM, respectively.
`COc1cccc2c1C(=O)c1c(O)c3c(c(O)c1C2=O)C[C@@](O)(C(=O)CO)C[C@@H]3O[C@H]1C[C@H](N)[C@H](O)[C@H](C)O1` [DOXORUBICIN]: the midpoint of inhibition in the experiment with HeLa, the IC50, lay at 0.71 µM.
Consider `CC1=NNC(=O)C1C(c1c(-c2ccccc2)[nH]c2ccc(C)cc12)c1c(-c2ccccc2)[nH]c2ccc(C)cc12` (stereo not drawn), for which the values for the IC50 with HeLa, in the experiment with A549 and in the experiment on HEp-2 were 32.7 µM, 37 µM and > 100 µM, respectively.
As to `CC1=NNC(=O)C1C(c1c(-c2ccccc2)[nH]c2ccccc12)c1c(-c2ccccc2)[nH]c2ccc(Cl)cc12` (stereo not drawn), the values for the IC50 with HeLa, with A549 and in the experiment with HEp-2 were 29.8 µM, 31.3 µM and 41.7 µM, respectively. In addition, in the experiment on Escherichia coli, the outcome was Active.
With `CC1=NNC(=O)C1C(c1c(-c2ccccc2)[nH]c2ccccc12)c1c(-c2ccccc2)[nH]c2ccc(C)cc12` (stereo not drawn), the figures for the IC50 in the experiment with HeLa, in the experiment with A549 and with HEp-2 were > 100 µM, 22.1 µM and > 100 µM, respectively.
As for `CC1=NNC(=O)C1C(c1c[nH]c2ccccc12)c1c(-c2ccccc2)[nH]c2ccc(C)cc12` (stereo not drawn), the concentration for half-maximal inhibition (IC50) was 2.4 µM with HeLa, 1.3 µM with A549 and 3.2 µM in the experiment with HEp-2. For the same compound, the outcome in the experiment on Escherichia coli was Active.
The matching figures for `COc1ccc2[nH]c(-c3ccccc3)c(C(c3c(-c4ccccc4)[nH]c4ccc(Cl)cc34)C3C(=O)NN=C3C)c2c1` (stereo not drawn): 1.2 µM, 1.1 µM, 6.2 µM and “Active”.
Take `CC1=NNC(=O)C1C(c1c[nH]c2ccccc12)c1c(-c2ccccc2)[nH]c2ccc(Cl)cc12` (stereo not drawn): the IC50 in the experiment on HeLa is 3.8 µM; in the experiment with A549, 1.6 µM; in the experiment on HEp-2, > 100 µM.
Turning to `COc1ccc2[nH]c(-c3ccccc3)c(C(c3c[nH]c4ccccc34)C3C(=O)NN=C3C)c2c1` (stereo not drawn), the half-maximal inhibitory concentration (IC50) stood at 1.7 µM in the experiment on HeLa, 2.7 µM with A549 and 5.3 µM with HEp-2.
